Measurements reported in ChEMBL document CHEMBL1201862, “PubChem BioAssay data set” (2004).
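Protocol summary: plate cells (96-well), add compound at 5 concentrations, incubate 48 h, interpolate endpoints linearly. The concentration for 50% growth inhibition is given as GI50.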 Activity calls are given as the source filed them. No stated cut-off is given here; in the data, active = GI50 up to about 1.1 µM and inactive = higher.

Key:
Experiment in all cases: inhibition of tumour cell growth, NCI panel, 48 h
RXF 393 = test system: RXF 393
786-0 = test system: 786-0
UACC-257 = test system: UACC-257
CCRF-CEM = test system: CCRF-CEM
KM12 = test system: KM12
SR = test system: SR
HOP-92 = test system: HOP-92
HCC 2998 = test system: HCC 2998
SF-539 = test system: SF-539
HL-60 = test system: HL-60
A549 = test system: A549
ACHN = test system: ACHN
OVCAR-8 = test system: OVCAR-8
SK-MEL-28 = test system: SK-MEL-28
OVCAR-5 = test system: OVCAR-5
SNB-75 = test system: SNB-75
SNB-19 = test system: SNB-19

Measured: GI50

CCCC/C=C1\CCC(C)(CN(C)C)C1=O (configuration not stated)
inactive: RXF 393 46.5 µM | 786-0 > 100 µM | UACC-257 > 100 µM | CCRF-CEM > 100 µM | KM12 > 100 µM | SR > 100 µM | HOP-92 > 100 µM | HCC 2998 > 100 µM | SF-539 > 100 µM | HL-60 55.5 µM | A549 > 100 µM | ACHN > 100 µM | OVCAR-8 > 100 µM | SK-MEL-28 > 100 µM | OVCAR-5 > 100 µM

Cc1c(C)c2cc3c(=O)ccoc3c(C)c2oc1=O
inactive: RXF 393 25 µM | 786-0 > 100 µM | UACC-257 > 100 µM | CCRF-CEM 44 µM | KM12 > 100 µM | HCC 2998 > 100 µM | SNB-75 15 µM | SF-539 85.5 µM | HL-60 50.2 µM | A549 > 100 µM | ACHN > 100 µM | OVCAR-8 > 100 µM | SNB-19 48.6 µM | SK-MEL-28 > 100 µM | OVCAR-5 > 100 µM

CCOc1ccc(NC(=O)CCc2nnc(SC)o2)cc1
inactive: RXF 393 > 100 µM | 786-0 > 100 µM | UACC-257 > 100 µM | CCRF-CEM > 100 µM | KM12 > 100 µM | SR > 100 µM | HOP-92 82 µM | HCC 2998 > 100 µM | SNB-75 > 100 µM | SF-539 > 100 µM | HL-60 > 100 µM | A549 > 100 µM | ACHN > 100 µM | OVCAR-8 > 100 µM | SNB-19 > 100 µM | SK-MEL-28 > 100 µM | OVCAR-5 > 100 µM

COc1ccc(/N=C/c2ccc(N(CCC#N)S(=O)(=O)c3ccccc3)cc2)cc1
inactive: RXF 393 > 100 µM | 786-0 > 100 µM | UACC-257 > 100 µM | CCRF-CEM > 100 µM | KM12 > 100 µM | SR > 100 µM | HOP-92 > 100 µM | SNB-75 > 100 µM | SF-539 > 100 µM | HL-60 > 100 µM | A549 > 100 µM | ACHN > 100 µM | OVCAR-8 > 100 µM | SNB-19 > 100 µM | SK-MEL-28 > 100 µM | OVCAR-5 > 100 µM

O=C(Nc1c(O)[nH]c(=S)[nH]c1=O)c1ccccc1F
inactive: 786-0 > 100 µM | UACC-257 > 100 µM | CCRF-CEM > 100 µM | KM12 > 100 µM | SR > 100 µM | HOP-92 > 100 µM | SNB-75 > 100 µM | SF-539 > 100 µM | HL-60 > 100 µM | A549 > 100 µM | ACHN > 100 µM | OVCAR-8 > 100 µM | SNB-19 > 100 µM | SK-MEL-28 > 100 µM | OVCAR-5 > 100 µM

O=C1C2C3C=C4c5ccccc5N(c5ccccc5)C4(C2C(=O)N1c1ccc(Br)cc1)[C@H]1C(=O)N(c2ccc(Br)cc2)C(=O)[C@@H]31 (some centres not stated)
inactive: RXF 393 > 100 µM | 786-0 > 100 µM | UACC-257 > 100 µM | CCRF-CEM > 100 µM | KM12 > 100 µM | SR 38.9 µM | HOP-92 84.3 µM | SNB-75 > 100 µM | SF-539 > 100 µM | HL-60 > 100 µM | A549 > 100 µM | OVCAR-8 > 100 µM | SNB-19 > 100 µM | OVCAR-5 > 100 µM

CCCCCCCSCC1C(=O)C23C(O)C1CCC2C12COC3(O)C(O)C1C(C)(C)CCC2O (configuration not stated)
inactive: RXF 393 11.2 µM | 786-0 13.8 µM | UACC-257 7.16 µM | CCRF-CEM 2.75 µM | KM12 10.6 µM | SR 4.92 µM | HOP-92 13.9 µM | HCC 2998 15 µM | SNB-75 21.2 µM | SF-539 13.2 µM | HL-60 3.96 µM | A549 18.7 µM | ACHN 12.4 µM | OVCAR-8 16.4 µM | SNB-19 18.9 µM | SK-MEL-28 9.51 µM | OVCAR-5 17.5 µM

CC(C)N(/C(F)=N\C(=O)Nc1ccccc1C(F)(F)F)C(C)C
inactive: 786-0 69 µM | UACC-257 55.1 µM | CCRF-CEM 37.9 µM | KM12 42.5 µM | SR 28.5 µM | HOP-92 22.5 µM | HCC 2998 31.3 µM | SNB-75 > 100 µM | SF-539 92 µM | HL-60 31 µM | A549 52.1 µM | ACHN 39.4 µM | OVCAR-8 58.1 µM | SNB-19 49.9 µM | SK-MEL-28 81.5 µM | OVCAR-5 > 100 µM

CCSC1=CC(Cc2ccc(OC)cc2)N(C(=O)OC)C1 (configuration not stated)
inactive: RXF 393 32.3 µM | 786-0 > 100 µM | UACC-257 90.6 µM | CCRF-CEM 49.7 µM | KM12 97.7 µM | SR 26.3 µM | HOP-92 55.2 µM | HCC 2998 > 100 µM | SNB-75 > 100 µM | SF-539 > 100 µM | HL-60 21.9 µM | A549 > 100 µM | ACHN > 100 µM | OVCAR-8 > 100 µM | SNB-19 > 100 µM | SK-MEL-28 > 100 µM | OVCAR-5 > 100 µM

CCCCCCCCCCCCCCCCOC(=O)c1cc(O)cc(C(=O)OCCCCCCCCCCCCCCCC)c1
inactive: RXF 393 > 100 µM | 786-0 > 100 µM | UACC-257 > 100 µM | CCRF-CEM > 100 µM | KM12 > 100 µM | HOP-92 > 100 µM | HCC 2998 > 100 µM | SNB-75 > 100 µM | HL-60 > 100 µM | A549 > 100 µM | ACHN > 100 µM | OVCAR-8 > 100 µM | SNB-19 > 100 µM | SK-MEL-28 > 100 µM | OVCAR-5 > 100 µM

COC(=O)C12C34C=CC5(CCC6(C=CC1(CC3)O6)C52C(=O)OC)O4 (configuration not stated)
inactive: RXF 393 75 µM | 786-0 > 100 µM | UACC-257 > 100 µM | CCRF-CEM > 100 µM | KM12 > 100 µM | SR > 100 µM | HOP-92 > 100 µM | HCC 2998 > 100 µM | SF-539 > 100 µM | HL-60 > 100 µM | A549 > 100 µM | ACHN > 100 µM | OVCAR-8 > 100 µM | SNB-19 > 100 µM | SK-MEL-28 > 100 µM | OVCAR-5 > 100 µM

C/C(=N/NC(=O)C(N)=O)C(CC(C(=O)Nc1ccccc1C)/C(C)=N\NC(=O)C(N)=O)C(=O)Nc1ccccc1C (configuration not stated)
inactive: RXF 393 > 100 µM | 786-0 > 100 µM | UACC-257 > 100 µM | CCRF-CEM > 100 µM | KM12 > 100 µM | HOP-92 47.1 µM | HCC 2998 > 100 µM | SNB-75 > 100 µM | SF-539 > 100 µM | HL-60 > 100 µM | A549 > 100 µM | ACHN 83.2 µM | OVCAR-8 > 100 µM | SNB-19 > 100 µM | SK-MEL-28 > 100 µM | OVCAR-5 > 100 µM

COc1ccc2c(c1)CC[C@@H]1C2CC[C@]2(C)C(=O)NC(=O)CC12 (some centres not stated)
inactive: 786-0 > 100 µM | UACC-257 > 100 µM | CCRF-CEM 88.3 µM | KM12 > 100 µM | HOP-92 > 100 µM | HCC 2998 53.3 µM | SF-539 > 100 µM | HL-60 43.6 µM | A549 > 100 µM | ACHN > 100 µM | OVCAR-8 > 100 µM | SNB-19 > 100 µM | OVCAR-5 > 100 µM
